Source: article PMC3591361 (PLoS ONE, 2013)
Values after ≈ are worked out from the molar mass of the structure shown.

What was measured:
[1] = in vivo; set-up: species or system mice; settings: i.v.; for half-life: female, athymic nude (nu/nu), mouse, iv, read-out: t1/2 (elimination half-life); for plasma concentration at 4 h: free drug administration (combined free drugs in DMSO)
Method: Human ovarian cancer SKOV-3 cells (2 x 10^6 in 0.1 ml matrigel/DMEM mixture) were implanted subcutaneously in each flank of 5–6 week-old female athymic nude mice (nu/nu, Charles River, Wilmington, MA). The tumor size was measured using a caliper, and the tumor volume was calculated as ½ × length × width^2.
Once SKOV-3 tumor volumes reached 100–300 mm^3, the mice were randomized into study groups (4 mice per group). […] At 5, 10, 15, 30, 60, 120 and 240 min post injection, whole blood was collected via the retro-orbital bleeding. Normal organs (liver, lung, spleen, kidney and heart) and tumor tissues were harvested at 120 min. […] The HPLC system (Waters, Milford, MA) consisted of a Waters 2795 pump, a Phenomenex (Torrance, CA) C8 column (5 µm, i.d. 4.6 mm × 150 mm) and a Waters 996 photodiode array detector. α-Naphthoflavone was used as an internal standard. […] For tissue homogenate samples, a gradient elution of A: sodium phosphate buffer and B: methanol (0–30 min 46% A, 30.01–40 min 28% A, 40.01–45 min 46% A) was used. The flow rate was 1.5 ml/min at 40°C. The assay methodology was established using blank plasma and tissue homogenate samples spiked with known drug concentrations. […] Representative chromatograms of the pure drugs, an extract of drug-spiked liver tissue, and an extract of blank liver tissue at 227, 333 and 281 nm are shown in Fig. 2.

[2] = free drug; stated without reference; cited from earlier work
[3] = combination therapy; weekly i.v. infusion for paclitaxel, twice-weekly i.v. infusion for 17-AAG; cited from earlier work
[4] = Stability of ICG fluorescence in HBS at 37°C; format: physicochemical
Method: To confirm the incorporation of ICG into the micelles, the stability of ICG-labeled micelles was studied at 37°C. Freshly prepared free ICG solution in HBS at the identical concentration was used as a control. At 0, 2, 4, 8, 24 and 48 h, aliquots of the micellar or free ICG solution were analyzed for the fluorescence intensity at 800 nm using Odyssey imaging system (LI-COR Biosciences, Lincoln, NE). All samples were prepared and analyzed in triplicates.

[5] = In vivo whole-body NIR fluorescence imaging in SKOV-3 tumor-bearing mice; settings: i.v., ICG dose 2 mg/kg, 800 nm channel
Method: ICG-labeled micelles were administered to SKOV-3 tumor-bearing mice via the tail vein injection at an ICG dose of 2 mg/kg. Freshly prepared free ICG solution in HBS was i.v. injected at the same dose to the control mice. Immediately following the injection (0 h) and at 1, 2, 4, 6, 24 and 48 h, the mice were anesthetized under a continuous flow of isoflurane/oxygen, and the spectral fluorescence signals of the whole body images (800 nm channel) were obtained using the Odyssey imaging system.

[6] = plasma, combined free drugs in DMSO, 20 mg/kg paclitaxel + 37.5 mg/kg 17-AAG, plasma, mean ± SD, n = 4

C=CCNC1=C2C[C@@H](C)C[C@H](OC)[C@H](O)[C@@H](C)/C=C(\C)[C@H](OC(N)=O)[C@@H](OC)/C=C\C=C(/C)C(=O)NC(=CC1=O)C2=O [17-AAG, Tanespimycin]
half-life [1, 6]: 20.3 ± 2.5 min | plasma concentration at 4 h [1]: below the detection limit | aqueous solubility [2]: 17 µM (≈ 9.96 µg/mL) | maximum tolerated dose in cancer patients [3]: 175 mg/m^2

CC1(C)C(/C=C/C=C/C=C/C=C2\N(CCCCS(=O)(=O)O)c3ccc4ccccc4c3C2(C)C)=[N+](CCCCS(=O)(=O)[O-])c2ccc3ccccc3c21 [ICG, indocyanine green]
decrease in fluorescence emission intensity ([4]; 8 h): about 50% | decrease in fluorescence emission intensity ([4]; 48 h): over 80% | clearance of fluorescence signal from the circulation/body [5]: rapidly cleared from the circulation

CC(=O)O[C@H]1C(=O)[C@@]2(C)[C@H]([C@H](OC(=O)c3ccccc3)[C@]3(O)C[C@H](OC(=O)[C@H](O)[C@@H](NC(=O)c4ccccc4)c4ccccc4)C(C)=C1C3(C)C)[C@]1(OC(C)=O)CO[C@@H]1C[C@@H]2O [paclitaxel, Paclitaxel]
AUC ([1]; combined free drugs in DMSO, 20 mg/kg paclitaxel + 37.5 mg/kg 17-AAG, plasma, mean ± SD, n = 4): 415.3±56.7 uM⋅min | half-life [1, 6]: ~40 min | plasma concentration at 4 h [1]: below the detection limit | maximum tolerated dose in cancer patients [3]: 80 mg/m^2
